Measurements published in article PMC7933358, “Enzymatic spiroketal formation via oxidative rearrangement of pentangular polyketides” (Nature Communications, 2021).

Experiments:
GrhO6 = target: T1, GrhO6 (Streptomyces sp. JP95, UniProt Q8KSX5); test: identification of flavin bound to purified enzyme by HPLC; type: binding; conditions: co-purified cofactor, tight, non-covalent
T1 construct: full-length gene in pETDuet-1 (EcoRI/PstI), polyhistidine tag kept; E. coli BL21 (DE3)
T1 sequence (Q8KSX5 1-520): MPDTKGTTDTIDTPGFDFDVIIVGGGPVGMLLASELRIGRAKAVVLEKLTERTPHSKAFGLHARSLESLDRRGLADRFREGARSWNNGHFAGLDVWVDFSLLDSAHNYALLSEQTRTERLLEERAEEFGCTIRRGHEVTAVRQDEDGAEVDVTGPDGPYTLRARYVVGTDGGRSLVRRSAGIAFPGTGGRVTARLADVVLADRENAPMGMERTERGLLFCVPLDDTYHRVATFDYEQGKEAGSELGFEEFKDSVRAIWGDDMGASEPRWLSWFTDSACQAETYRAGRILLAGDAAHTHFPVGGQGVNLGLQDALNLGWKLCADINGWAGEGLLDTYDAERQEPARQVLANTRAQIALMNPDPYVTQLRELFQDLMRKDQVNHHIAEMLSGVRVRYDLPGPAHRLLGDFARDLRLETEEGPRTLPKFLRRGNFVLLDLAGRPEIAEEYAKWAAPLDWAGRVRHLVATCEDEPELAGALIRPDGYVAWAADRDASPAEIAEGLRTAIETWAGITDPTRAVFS

GrhO5 = target: T2, GrhO5 (Streptomyces sp. JP95, UniProt Q8KSX7); test: as above; type: binding; conditions: co-purified cofactor
T2 construct: full-length gene in pMAL-c5x-His (NdeI/PstI), N-terminal MBP tag kept; E. coli BL21 (DE3); amplified from cosmid pMP31
T2 sequence (Q8KSX7 1-537): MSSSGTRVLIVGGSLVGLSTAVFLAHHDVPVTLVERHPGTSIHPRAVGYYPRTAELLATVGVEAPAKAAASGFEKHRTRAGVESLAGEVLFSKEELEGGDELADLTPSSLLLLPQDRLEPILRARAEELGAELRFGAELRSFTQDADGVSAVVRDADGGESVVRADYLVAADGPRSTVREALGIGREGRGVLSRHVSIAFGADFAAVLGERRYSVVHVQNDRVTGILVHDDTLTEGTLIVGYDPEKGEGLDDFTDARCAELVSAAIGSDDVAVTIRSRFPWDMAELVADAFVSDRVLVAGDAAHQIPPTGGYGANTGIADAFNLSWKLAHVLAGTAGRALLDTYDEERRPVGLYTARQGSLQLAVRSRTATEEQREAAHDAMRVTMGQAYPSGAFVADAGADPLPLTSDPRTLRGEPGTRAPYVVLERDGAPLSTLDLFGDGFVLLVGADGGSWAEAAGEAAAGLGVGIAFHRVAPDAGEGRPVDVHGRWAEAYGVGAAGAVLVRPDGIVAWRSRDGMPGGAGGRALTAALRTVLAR

**Q.** What does the source list for `Cc1cc2nc3c(=O)[nH]c(=O)nc-3n(C[C@H](O)[C@H](O)[C@H](O)COP(=O)(O)OP(=O)(O)OC[C@H]3O[C@@H](n4cnc5c(N)ncnc54)[C@H](O)[C@@H]3O)c2cc1C` [FAD]?
**A.** identification of flavin bound to purified enzyme by HPLC (GrhO6): contained a tightly, but non-covalently bound FAD cofactor similar to GrhO5; identification of flavin bound to purified enzyme by HPLC (GrhO5): bound flavin cofactor that was further determined as flavin adenine dinucleotide
